Reference: US11771709B2, “ALK protein degradation agent and anti-tumor application thereof” (ShanghaiTech University, priority 2017, dated 2023)
Read-outs that look alike come from different tables or passages of the source.

Tests used:
[1] = test system: NCI-H2228 (EML4-ALK, V3) cells; assay: Growth inhibition IC50 in lung adenocarcinoma H2228 cells (WST); format: cell-based; conditions: Homo sapiens, WST (Table 3)
Source text: Experiments were repeated at least three times.
Besides above, we also tested the dosage-dependent effects on the growth inhibition in H2228 cells. […] (Table 3).

[2] = test system: PC9Brc1 (EGFR, exon 19 del+T790M) cells; assay: Growth inhibition IC50 in EGFR mutant lung cancer PC9Brc1 cells; format: cell-based; conditions: CTB, n ≥ 3, read-out: Half Inhibitory Concentration (IC50) Mean
Method: (§1) SR (NPM-ALK) and NCI-H2228 (EML4-ALK, V3) cells were purchased from ATCC. […] All Cells were cultured in RPMI1640 medium with 10% FBS and Penicillin-Streptomycin in 37° C. incubator with 5% CO2.
(§2) Cells were seeded at specific density in 96 well plates one day before treatment. […] Viable cells were measured via CCK8 reagent and IC50s were calculated via Prism Graphad. Experiments were repeated at least three times.

[3] = test system: U118MG cells (FIG-ROS1 gene fusion); assay: Growth inhibition IC50 in ROS1 mutant glioblastoma cell line U118MG (72 hours); format: cell-based; conditions: Homo sapiens, U-118-MG
[4] = test system: ALK positive non-small cell lung cancer; conditions: cited from earlier work
[5] = biological target: T1, ALK protein in SR (NPM-ALK) cells (Homo sapiens, UniProt Q9UM73); assay: Western blot of ALK protein level (degradation, DC50), ALK phosphorylation and downstream signaling in SR cells; format: cell-based; conditions: for ALK protein degradation: 16 hours, up to 500 nM
T1 construct: NPM (nucleophosmin, NPM1, P06748) fusion partner; host or cells: SR (ALCL) cells; the other entry of the earlier key: NPM1 (P06748, Nucleophosmin)
Method: Cancer cells were seeded in 1 ml RPMI1640 medium in 24-well plate at the density of 3×10^5 or 1.5×10^5 cells/ml. […] Then cells were washed twice with PBS and lyzed in RIPA lysis buffer with Halt Proteinase and Phosphotase inhibitor. Equal amount of proteins were loaded to run SDS-PAGE gels after denature. The gels were blotted to PVDF membrane. After incubating with first and secondary antibodies, the images were developed using SuperSignal West Pico Chemiluminescent Substrate.
DC50 (concentration required to degrade protein by half) were calculated based on the intensity from western blot, and data were analyzed via Prism GraphPad with non-linear regression.

[6] = test system: SW48 cell line (EGFR G719S); assay: Growth inhibition IC50 in EGFR G719S colorectal cancer cell line SW48; format: cell-based; conditions: Homo sapiens, CTG, n = 2, read-out: Half Inhibitory Concentration (IC50) Mean
Method: as §2

[7] = biological target: T2, Ba/F3 (EML4-ALK/L1196M) (Homo sapiens, UniProt Q9UM73, L1196M, cells depend on it); assay: Growth inhibition IC50 in Ba/F3 cells expressing EML4-ALK L1196M; format: cell-based
T2 construct: Q9HC35 (Echinoderm microtubule-associated protein-like 4)
Method: as §2

[8] = test system: PC9 (EGFR, exon 19 del) cells; assay: Growth inhibition IC50 in EGFR mutant lung adenocarcinoma PC9 cells; format: cell-based; conditions: Homo sapiens
Method: as §1, §2

[9] = test system: SR (NPM-ALK) cells; assay: Growth inhibition IC50 in ALCL SR cells (CCK8/WST, 72 hours); format: cell-based; conditions: SR cells, WST
Method: as §1, §2

[10] = test system: MOLM13 cells (FLT3-ITD); assay: Growth inhibition IC50 in FLT3-ITD AML cell line MOLM13; format: cell-based; conditions: Homo sapiens
Method: as §2

[11] = biological target: T3, Ba/F3 (EML4-ALK/C1156Y) (Homo sapiens, UniProt Q9UM73, C1156Y, cells depend on it); assay: Growth inhibition IC50 in Ba/F3 cells expressing EML4-ALK C1156Y; format: cell-based
T3 construct: Q9HC35 (Echinoderm microtubule-associated protein-like 4)
Method: as §2

[12] = biological target: T4, ALK protein in H3122 (EML4-ALK) cells (Homo sapiens, UniProt Q9UM73); assay: Western blot of ALK protein level (degradation, DC50), ALK phosphorylation and downstream signaling in H3122 cells; format: cell-based; conditions: for DC50: ALK protein degradation in H3122 cells
T4 construct: EML4 (Echinoderm microtubule-associated protein-like 4, Q9HC35) fusion partner, variant 1; host or cells: NCI-H3122 lung adenocarcinoma cells; the other entry of the earlier key: EML4 (Q9HC35, Echinoderm microtubule-associated protein-like 4)

[13] = test system: NCI-H3122 (EML4-ALK, V1) cells; assay: Growth inhibition IC50 in lung cancer H3122 cells (Cell Titer Blue / Cell Titer Glo)
Method: as §1, §2

[14] = biological target: T5, ALK protein in H3122 cells (Homo sapiens, UniProt Q9UM73); assay: ALK protein stability after stopping translation with cycloheximide in H3122 cells; format: cell-based; conditions: 0.5 uM compound, 1 ug/ml cycloheximide, 12 hours (Ceritinib), 7 hours (SIAIS074017)
T5 construct: EML4 (Echinoderm microtubule-associated protein-like 4, Q9HC35) fusion partner, variant 1; host or cells: NCI-H3122 lung adenocarcinoma cells; the other entry of the earlier key: EML4 (Q9HC35, Echinoderm microtubule-associated protein-like 4)
Method: The mechanism of PROTAD compound to degrade its target protein acts through recruiting E3 ubiquitining ligase to the proximity of its target protein, which leads to the target protein being highly ubiquitinzed and eventually being degraded. In order to see the mechanism of ALK PROTAD compounds we developed, we firstly examined the half-life of ALK protein. Because the total level of ALK protein was determined by both the translational activity and protein degradation, we used cyclohexmide to stop protein translation to examine the effect of ALK PROTAD compounds on ALK protein stabilities.
We listed data for Ceritinib-based ALK PROTAD compounds here as an example, and data for other ALK PROTAD compounds were tested in the same way and similar results were found. […] The difference at the total ALK protein level will reflect the different influence of drugs on protein stability.

[15] = biological target: T6, Ba/F3 (EML4-ALK/WT) (Homo sapiens, UniProt Q9UM73); assay: Growth inhibition IC50 in Ba/F3 cells expressing EML4-ALK wild type; format: cell-based
T6 construct: Q9HC35 (Echinoderm microtubule-associated protein-like 4)
Method: as §2

[16] = Pharmacokinetics (PK) study in SD rat (IV, IP, PO; LC-MS/MS); format: in vivo; conditions: Sprague-Dawley, serum
Method: SD rat were used to study the PK of ALK PROTAD compounds. ALK PROTAD compounds SIAIS164008, SIAIS164018, SIAIS164023 and SIAIS151118 were administrated into SD rat via three different routes: IV (Intravenous Injection), IP (Intraperitoneal Injection) and PO ([…]). Blood samples at different sampling time points up to 24 hours post dosing were collected from each animal and analyzed with LC-MS/MS to calculate the PK for each chemical.

[17] = test system: ALK protein in H2228 (EML4-ALK) cells; assay: Western blot of ALK protein level, ALK phosphorylation and downstream signaling in H2228 cells; format: cell-based
Method: Cancer cells were seeded in 1 ml RPMI1640 medium in 24-well plate at the density of 3×10^5 or 1.5×10^5 cells/ml. The next day cells were treated with different concentration of drugs for 16 hours. Then cells were washed twice with PBS and lyzed in RIPA lysis buffer with Halt Proteinase and Phosphotase inhibitor. Equal amount of proteins were loaded to run SDS-PAGE gels after denature. The gels were blotted to PVDF membrane. After incubating with first and secondary antibodies, the images were developed using SuperSignal West Pico Chemiluminescent Substrate.
The effect of Brigtinib based PROTAD molecules on the ALK protein total level were studied by western blot in ALCL SR (NPM-ALK) cell line and lung adenocarcinoma cell line H2228 and H3122 (EML4-ALK).
The effects of compounds SIAIS164008 and SIAIS164018 of the present invention on the activation of ALK mediated signaling pathways were also studied in SR cells and H2228 cells. […] The overall effect of compound of SIAIS164018 was better than that of SIAIS164008.

[18] = biological target: T7, ALK protein in SR cells (Homo sapiens, UniProt Q9UM73); assay: Block of ALK degradation by proteosome inhibitors MG132 and MLN4924 in SR cells; format: cell-based
T7 construct: NPM (nucleophosmin, NPM1, P06748) fusion partner; host or cells: SR (ALCL) cells; the other entry of the earlier key: NPM1 (P06748, Nucleophosmin)
Source text: To further validate the degradation effect act through proteosome mediated pathway, we also treated cells with two different proteosome inhibitors MG132 and MLN4924 to block protein degradation (FIG. 16).

[19] = Ceritinib based ALK PROTAD compounds (Table 5)

COc1cc(N2CCC(N3CCN(C)CC3)CC2)ccc1Nc1ncc(Cl)c(Nc2ccccc2P(C)(C)=O)n1 [Brigatinib, reference compound]
IC50 [1]: 45.2 nM
IC50 [2]: 246 nM
IC50 ([3]; 72 h): ~6800 nM
IC50 ([3]; 72 h, read-out: Half Inhibitory Concentration (IC50) Mean): 6800 nM
disease control rate ([4]; patients): about 86%
response rate ([4]; patients): 55%
ALK protein levels, time- and dose-dependence ([5]; SR cells, 30 nM to 300 uM, 4-24 hours): did not affect ALK protein levels
ALK protein degradation ([5]; SR cells, western blot): did not degrade ALK proteins
IC50 [6]: 2720 nM
GI50 [7]: 35.9 nM
IC50 ([8]; PC-9, read-out: Half Inhibitory Concentration (IC50) Mean): 102 nM
IC50 ([9]; 72 hours, Brigatinib-based PROTAD molecules (Table 3)): 2.8 nM
IC50 ([10]; MOLM-13): ~152 nM
IC50 ([10]; MOLM-13, read-out: Half Inhibitory Concentration (IC50) Mean): 152 nM
GI50 [11]: 36.8 nM

Cc1cc(Nc2ncc(Cl)c(Nc3ccccc3S(=O)(=O)C(C)C)n2)c(OC(C)C)cc1C1CCNCC1 [Ceritinib, reference compound]
increase of progression free survival comparing to second line chemotherapy ([4]; second line treatment (Shaw et al., 2017)): about 4 months
ALK protein level / degradation ([12]; H3122 cells, western blot, up to 500 nM): did not affect ALK protein level
IC50 ([13]; H3122 cells, CTB (Cell Titer Blue)): 14 nM
IC50 ([13]; H3122 cells, CTG (Cell Titer Glo)): 44 nM
ALK protein level after stop of translation (protein stability) [14]: did not show much difference
IC50 [9, 19]: 16 nM

Cc1cc(Nc2ncc(Cl)c(Nc3ccccc3S(=O)(=O)C(C)C)n2)c(OC(C)C)cc1C1CCN(C(=O)CCC(=O)N[C@H](C(=O)N2C[C@H](O)C[C@H]2C(=O)NCc2ccc(-c3scnc3C)cc2)C(C)(C)C)CC1 [SIAIS074017, (2S,4R)-1-((S)-2-(4-(4-(4-((5-chloro-4-((2-(isopropylsulfonyl)phenyl)amino)pyrimidin-2-yl)amino)-5-isopropoxy-2-methylphenyl)piperidin-1-yl)-4-oxobutanamido)-3,3-dimethylbutanoyl)-4-hydroxy-N-(4-(4-methylthiazol-5-yl)benzyl)pyrrolidine-2-carboxamide]
DC50 [12]: 100 to 500 nM
IC50 ([13]; Homo sapiens, NCI-H3122, H3122 cells, CTB (Cell Titer Blue)): 45 nM
IC50 ([13]; Homo sapiens, NCI-H3122, H3122 cells, CTG (Cell Titer Glo)): 41 nM
ALK protein level after stop of translation (protein stability) [14]: significantly reduced ALK protein level
IC50 [9, 19]: 116 nM

COc1cc(N2CCC(N3CCN(C(=O)CCOCCOCCNc4cccc5c4C(=O)N(C4CCC(=O)NC4=O)C5=O)CC3)CC2)ccc1Nc1ncc(Cl)c(Nc2ccccc2P(C)(C)=O)n1 (stereo not shown) [SIAIS164008, 4-((2-(2-(3-(4-(1-(4-((5-chloro-4-((2-(dimethylphosphoryl)phenyl)amino)pyrimidin-2-yl)amino)-3-methoxyphenyl)piperidin-4-yl)piperazin-1-yl)-3-oxopropoxy)ethoxy)ethyl)amino)-2-(2,6-dioxopiperidin-3-yl)isoindoline-1,3-dione]
IC50 [1]: 74 nM
IC50 [2]: 1830 nM
IC50 ([3]; U118MG cells, 72 hours, n = 2, reagent CTG, read-out: Half Inhibitory Concentration (IC50) Mean): 3520 nM
IC50 ([3]; U118MG cells, 72 hours, read-out: IC50): ~3520 nM
DC50 ([5]; ALK protein degradation in SR cells): 1 to 10 nM
concentration inhibiting the phosphorylation of ALK proteins ([5]; SR cells, western blot): 0.1 nM
downstream signaling pathway (PI3K/AKT, MEK/ERK and STAT3) ([5]; SR cells, western blot): significantly inhibited
ALK protein degradation ([5]; SR cells, western blot): effectively degrade ALK proteins at nano mole concentration
GI50 [15]: 115 nM
DC50 [12]: 10 to 50 nM
IC50 [6]: 15200 nM
GI50 [7]: 376 nM
IC50 ([8]; PC-9, PC9 cells, CTB, n ≥ 3, read-out: Half Inhibitory Concentration (IC50) Mean): 265 nM
bioavailability ([16]; IP, 2 mg/kg): 93%
half-life ([16]; IP, 2 mg/kg, read-out: serum half-life (converted)): 1.54 h
Tmax ([16]; IP, 2 mg/kg, read-out: time to maximal serum peak level (Tmax)): ~0.42 h
clearance ([16]; IV, single dose 2 mg/kg, read-out: clearance rate, mean value): ~414 mL/min/kg
half-life ([16]; IV, single dose 2 mg/kg, read-out: serum clearance half-life (converted)): ~0.85 h
bioavailability ([16]; PO, 10 mg/kg): 14.9%
Tmax ([16]; PO, 10 mg/kg, read-out: Tmax): 2.75 h
half-life ([16]; PO, 10 mg/kg, read-out: serum half-life (converted)): 3.98 h
IC50 ([9]; 72 h, Brigatinib-based PROTAD molecules (Table 3)): 3.6 ± 2.1 nM
IC50 ([10]; MOLM-13, MOLM13 cells, n = 2, reagent CTG, read-out: Half Inhibitory Concentration (IC50) Mean): 392 nM
phosphorylation of ALK protein and activation of PI3K/AKT pathway [17]: inhibited
GI50 [11]: 243 nM

COc1cc(N2CCC(N3CCN(C(=O)CNc4cccc5c4C(=O)N(C4CCC(=O)N(C)C4=O)C5=O)CC3)CC2)ccc1Nc1ncc(Cl)c(Nc2ccccc2P(C)(C)=O)n1 (stereo not shown) [SIAIS1210003, 4-((2-(4-(1-(4-((5-chloro-4-((2-(dimethylphosphoryl)phenyl)amino)pyrimidin-2-yl)amino)-3-methoxyphenyl)piperidin-4-yl)piperazin-1-yl)-2-oxoethyl)amino)-2-(1-methyl-2,6-dioxopiperidin-3-yl)isoindoline-1,3-dione]
reduction of ALK protein level and its block by MG132 and MLN4924 [18]: no such effect
